Test results: patent US8394592B2, “Methods for assessing cancer susceptibility to carcinogens in tobacco products” (The Board of Regents of the University of Texas System, priority 2006, dated 2013)

Tested on: peripheral blood lymphocytes
Experiment: Cytokinesis-block micronucleus (CBMN) assay, NNK-treated lymphocyte cultures of lung cancer cases and controls
Format: cell-based, human
Settings: 0.24 mM NNK
Protocol: The CBMN test was performed using the cytochalasin B technique described by Fenech and Morley (22) and following recommendations from The International Collaborative Project on Micronucleus Frequency in Human Populations (HUMN Project) to measure MN, NPBs and NBUDs in untreated cells and NNK-treated cells (27). Duplicate lymphocyte cultures were prepared for each study subject. Each culture contained 2.0×10^6 cells in 5 mL RPMI 1640 medium supplemented with 100 U/mL penicillin, 100 μg/mL streptomycin, 10% fetal bovine serum, and 2 mM L-glutamine (Gibco-Invitrogen, Carlsbad, Calif.) and 1% phytohemagglutinin (Remel, Lenexa, Kans.). For the cultures treated with NNK, 24 hours after initiation, the PBLs were centrifuged and the supernatant growth medium was removed and reserved. The PBLs were resuspended in 5 mL of serum-free RPMI 1640 medium supplemented with 0.24 mM NNK (a dose previously used by us and others (23-26) (CAS No. 64091-91-4, National Cancer Institute, Midwest Carcinogen Repository, Kansas City, Mo.; purity>98%) and incubated at 37° C. in the presence of 5% CO2 for 2 hours.
Next, the PBLs were washed twice with serum-free RPMI 1640, transferred to clean tubes and re-incubated for […] in the reserved supernatant. At 44 hours after initiation, cells were blocked in cytokinesis by adding cytochalasin B (Sigma, St. Louis, Mo.; final concentration 4 µg/mL). Similarly, cultures for the determination of spontaneous damage (untreated cells) were handled in the same manner, with the exception of treatment with NNK. The total incubation time for all cultures was 72 hours. After incubation, the cells were fixed in 3:1 methanol:glacial acetic acid, dropped onto clean microscopic slides, air-dried and stained with Giemsa stain. For each sample, 1000 binucleated cells were scored blindly using a Nikon E-400 light optical microscope following the scoring criteria outlined by HUMN Project (2,22,27); the numbers of MN, NPBs, and NBUDs per 1000 binucleated cells were recorded. For quality control, 20% of the slides were randomly selected and blindly rescored and the results compared with the original scoring.

[1] = Case, History of Alcohol Use No
[2] = Case, History of Alcohol Use Yes

**Q.** Which “NNK-induced MN, Mean ± SE” value (Case, Age > 62) does the source give for CN(CCCC(=O)c1cccnc1)N=O [NNK, 4-(methylnitrosamino)-1-(3-pyridyl)-1-butanone] here?
**A.** Its value is 4.54 ± 0.22 per 1000 binucleated cells.

**Q.** And the “NNK-induced MN, Median” value (Case, Age > 62)?
**A.** Its value is 4.0 per 1000 binucleated cells.

**Q.** And the “NNK-induced NBUDs, Mean ± SE” value (Case, Age > 62)?
**A.** The value was 0.90 ± 0.17 per 1000 binucleated cells.

**Q.** And the “NNK-induced NBUDs, Median” value (Case, Age > 62)?
**A.** Its value is 1.0 per 1000 binucleated cells.

**Q.** And the “NNK-induced NPBs, Mean ± SE” value (Case, Age > 62)?
**A.** Its value is 8.15 ± 0.33 per 1000 binucleated cells.

**Q.** And the “NNK-induced NPBs, Median” value (Case, Age > 62)?
**A.** The value was 8.0 per 1000 binucleated cells.

**Q.** And the “NNK-induced MN, Mean ± SE” value (Case, Age ≦ 62)?
**A.** The value was 4.22 ± 0.11 per 1000 binucleated cells.

**Q.** What about the “NNK-induced MN, Median” value (Case, Age ≦ 62) of the same molecule?
**A.** The value was 4.0 per 1000 binucleated cells.

**Q.** What about the “NNK-induced NBUDs, Mean ± SE” value (Case, Age ≦ 62) of the same molecule?
**A.** Its value is 1.12 ± 0.11 per 1000 binucleated cells.

**Q.** And the “NNK-induced NBUDs, Median” value (Case, Age ≦ 62)?
**A.** Its value is 1.0 per 1000 binucleated cells.

**Q.** What about the “NNK-induced NPBs, Mean ± SE” value (Case, Age ≦ 62) of the same molecule?
**A.** Its value is 8.11 ± 0.23 per 1000 binucleated cells.

**Q.** And the “NNK-induced NPBs, Median” value (Case, Age ≦ 62)?
**A.** The value was 8.0 per 1000 binucleated cells.

**Q.** And the “NNK-induced MN, Mean ± SE” value (Case, Females)?
**A.** Its value is 4.19 ± 0.17 per 1000 binucleated cells.

**Q.** What about the “NNK-induced MN, Median” value (Case, Females) of the same molecule?
**A.** Its value is 4.0 per 1000 binucleated cells.

**Q.** And the “NNK-induced NBUDs, Mean ± SE” value (Case, Females)?
**A.** Its value is 1.07 ± 0.12 per 1000 binucleated cells.

**Q.** And the “NNK-induced NBUDs, Median” value (Case, Females)?
**A.** The value was 1.0 per 1000 binucleated cells.

**Q.** And the “NNK-induced NPBs, Mean ± SE” value (Case, Females)?
**A.** Its value is 8.24 ± 0.32 per 1000 binucleated cells.

**Q.** What about the “NNK-induced NPBs, Median” value (Case, Females) of the same molecule?
**A.** Its value is 8.0 per 1000 binucleated cells.

**Q.** And the “NNK-induced MN, Mean ± SE” value [1]?
**A.** The value was 4.26 ± 0.14 per 1000 binucleated cells.

**Q.** And the “NNK-induced MN, Median” value [1]?
**A.** The value was 4.00 per 1000 binucleated cells.

**Q.** What about the “NNK-induced NBUDs, Mean ± SE” value [1] of the same molecule?
**A.** Its value is 1.09 ± 0.18 per 1000 binucleated cells.

**Q.** And the “NNK-induced NBUDs, Median” value [1]?
**A.** Its value is 1.00 per 1000 binucleated cells.

**Q.** And the “NNK-induced NPBs, Mean ± SE” value [1]?
**A.** The value was 8.04 ± 0.32 per 1000 binucleated cells.

**Q.** What about the “NNK-induced NPBs, Median” value [1] of the same molecule?
**A.** Its value is 8.00 per 1000 binucleated cells.

**Q.** What about the “NNK-induced MN, Mean ± SE” value [2] of the same molecule?
**A.** The value was 4.37 ± 0.14 per 1000 binucleated cells.

**Q.** What about the “NNK-induced MN, Median” value [2] of the same molecule?
**A.** The value was 4.00 per 1000 binucleated cells.

**Q.** What about the “NNK-induced NBUDs, Mean ± SE” value [2] of the same molecule?
**A.** Its value is 1.04 ± 0.11 per 1000 binucleated cells.

**Q.** And the “NNK-induced NBUDs, Median” value [2]?
**A.** Its value is 1.00 per 1000 binucleated cells.

**Q.** What about the “NNK-induced NPBs, Mean ± SE” value [2] of the same molecule?
**A.** The value was 8.14 ± 0.24 per 1000 binucleated cells.

**Q.** And the “NNK-induced NPBs, Median” value [2]?
**A.** Its value is 8.00 per 1000 binucleated cells.

**Q.** What about the “NNK-induced MN, Mean ± SE” value (Case, Males) of the same molecule?
**A.** Its value is 4.37 ± 0.13 per 1000 binucleated cells.

**Q.** And the “NNK-induced MN, Median” value (Case, Males)?
**A.** The value was 4.0 per 1000 binucleated cells.

**Q.** And the “NNK-induced NBUDs, Mean ± SE” value (Case, Males)?
**A.** Its value is 1.07 ± 0.11 per 1000 binucleated cells.

**Q.** What about the “NNK-induced NBUDs, Median” value (Case, Males) of the same molecule?
**A.** The value was 1.0 per 1000 binucleated cells.

**Q.** And the “NNK-induced NPBs, Mean ± SE” value (Case, Males)?
**A.** Its value is 8.07 ± 0.23 per 1000 binucleated cells.

**Q.** What about the “NNK-induced NPBs, Median” value (Case, Males) of the same molecule?
**A.** Its value is 8.0 per 1000 binucleated cells.

**Q.** And the “NNK-induced MN, Mean ± SE” value (Case, Overall)?
**A.** The value was 4.32±0.10 per 1000 binucleated cells.

**Q.** And the “NNK-induced MN, Median” value (Case, Overall)?
**A.** The value was 4.0 per 1000 binucleated cells.

**Q.** And the “NNK-induced NBUDs, Mean ± SE” value (Case, Overall)?
**A.** The value was 1.07±0.09 per 1000 binucleated cells.

**Q.** And the “NNK-induced NBUDs, Median” value (Case, Overall)?
**A.** Its value is 1.0 per 1000 binucleated cells.

**Q.** And the “NNK-induced NPBs, Mean ± SE” value (Case, Overall)?
**A.** The value was 8.12±0.19 per 1000 binucleated cells.

**Q.** What about the “NNK-induced NPBs, Median” value (Case, Overall) of the same molecule?
**A.** The value was 8.0 per 1000 binucleated cells.

**Q.** And the “NNK-induced MN, Mean ± SE” value (Case, Years smoked > 32)?
**A.** The value was 4.33 ± 0.10 per 1000 binucleated cells.

**Q.** And the “NNK-induced MN, Median” value (Case, Years smoked > 32)?
**A.** The value was 4.0 per 1000 binucleated cells.

**Q.** What about the “NNK-induced NBUDs, Mean ± SE” value (Case, Years smoked > 32) of the same molecule?
**A.** The value was 1.08 ± 0.01 per 1000 binucleated cells.

**Q.** What about the “NNK-induced NBUDs, Median” value (Case, Years smoked > 32) of the same molecule?
**A.** The value was 1.0 per 1000 binucleated cells.

**Q.** And the “NNK-induced NPBs, Mean ± SE” value (Case, Years smoked > 32)?
**A.** Its value is 8.07 ± 0.19 per 1000 binucleated cells.

**Q.** And the “NNK-induced NPBs, Median” value (Case, Years smoked > 32)?
**A.** Its value is 8.0 per 1000 binucleated cells.

**Q.** What about the “NNK-induced MN, Mean ± SE” value (Case, Years smoked ≦ 32) of the same molecule?
**A.** Its value is 3.63 ± 0.32 per 1000 binucleated cells.

**Q.** What about the “NNK-induced MN, Median” value (Case, Years smoked ≦ 32) of the same molecule?
**A.** The value was 4.0 per 1000 binucleated cells.

**Q.** And the “NNK-induced NBUDs, Mean ± SE” value (Case, Years smoked ≦ 32)?
**A.** Its value is 1.13 ± 0.44 per 1000 binucleated cells.

**Q.** And the “NNK-induced NBUDs, Median” value (Case, Years smoked ≦ 32)?
**A.** Its value is 1.0 per 1000 binucleated cells.

**Q.** And the “NNK-induced NPBs, Mean ± SE” value (Case, Years smoked ≦ 32)?
**A.** The value was 9.25 ± 0.96 per 1000 binucleated cells.

**Q.** And the “NNK-induced NPBs, Median” value (Case, Years smoked ≦ 32)?
**A.** The value was 8.3 per 1000 binucleated cells.

**Q.** And the “NNK-induced MN, Mean ± SE” value (Control, Age > 62)?
**A.** Its value is 2.75 ± 0.15 per 1000 binucleated cells.

**Q.** And the “NNK-induced MN, Median” value (Control, Age > 62)?
**A.** Its value is 3.0 per 1000 binucleated cells.

**Q.** And the “NNK-induced NBUDs, Mean ± SE” value (Control, Age > 62)?
**A.** Its value is 0.10 ± 0.05 per 1000 binucleated cells.

**Q.** What about the “NNK-induced NBUDs, Median” value (Control, Age > 62) of the same molecule?
**A.** Its value is 0.0 per 1000 binucleated cells.

**Q.** What about the “NNK-induced NPBs, Mean ± SE” value (Control, Age > 62) of the same molecule?
**A.** The value was 2.35 ± 0.14 per 1000 binucleated cells.

**Q.** What about the “NNK-induced NPBs, Median” value (Control, Age > 62) of the same molecule?
**A.** The value was 2.0 per 1000 binucleated cells.

**Q.** And the “NNK-induced MN, Mean ± SE” value (Control, Age ≦ 62)?
**A.** Its value is 2.58 ± 0.14 per 1000 binucleated cells.

**Q.** What about the “NNK-induced MN, Median” value (Control, Age ≦ 62) of the same molecule?
**A.** The value was 2.0 per 1000 binucleated cells.

**Q.** And the “NNK-induced NBUDs, Mean ± SE” value (Control, Age ≦ 62)?
**A.** Its value is 0.13 ± 0.04 per 1000 binucleated cells.

**Q.** And the “NNK-induced NBUDs, Median” value (Control, Age ≦ 62)?
**A.** Its value is 0.0 per 1000 binucleated cells.

**Q.** What about the “NNK-induced NPBs, Mean ± SE” value (Control, Age ≦ 62) of the same molecule?
**A.** Its value is 2.41 ± 0.11 per 1000 binucleated cells.

**Q.** And the “NNK-induced NPBs, Median” value (Control, Age ≦ 62)?
**A.** The value was 2.0 per 1000 binucleated cells.

**Q.** And the “NNK-induced MN, Mean ± SE” value (Control, Females)?
**A.** The value was 2.51 ± 0.23 per 1000 binucleated cells.

**Q.** And the “NNK-induced MN, Median” value (Control, Females)?
**A.** Its value is 2.0 per 1000 binucleated cells.

**Q.** And the “NNK-induced NBUDs, Mean ± SE” value (Control, Females)?
**A.** Its value is 0.11 ± 0.05 per 1000 binucleated cells.

**Q.** What about the “NNK-induced NBUDs, Median” value (Control, Females) of the same molecule?
**A.** The value was 1.0 per 1000 binucleated cells.
